According to patent US12226410B2, “Methods for enhancing cellular clearance of pathological molecules via activation of the cellular protein ykt6” (NORTHWESTERN UNIVERSITY, priority 2019, dated 2025):

Tests used:
ykt6 SNARE complexes = experiment: Co-IP of GFP-ykt6 SNARE assemblies in FTI-treated SH-SY5Y cells; format: cell-based, human; settings: SH-SY5Y cells expressing GFP-ykt6 wt; 5 nM, 5d
Procedure: FIGS. 5A, 5B, 5C, 5D, 5E, 5F, and 5G. Reducing farnesyl-ykt6 enhances SNARE assembly and improves the lysosomal targeting of GCase. 5A) Ykt6 membrane shift analysis of SH-SY5Y cells expressing GFP-ykt6 wt or CS (n=3). 5B) Co-IP of GFP-ykt6 and bet1 in A53T iPSn (n=3). 5C) Ykt6 membrane shift analysis in FTI-treated SH-SY5Y wt a-syn cells or A53T iPSn (5 nM farnesyltransferase inhibitors (FTI) LNK-754 (FTI-1) or LNK-3248 (FTI-2) for 5 days) (n=4). Sec22b was measured to assess specificity. 5D) SEC/western blot of FTI-1 treated SH-SY5Y cells. Quantification is shown below. 5E) Co-IP of GFP-ykt6 wt or mutant ykt6-SS, (cannot be palmitoylated or farnesylated) in FTI-treated SHSY5Y cells (5 nM LNK-754, 5d) (n=2). 5F) Immunofluorescence of GCase and LAMP2A in FTI-treated H4 a-syn cells transfected with scrambled (scrb) or ykt6 shRNA (n=3). Scale bar=10 um. 5G) GCase maturation analysis in FTI-treated A53T iPSn by endo H (n=3). Values are the mean+/−SEM, *p<0.05.
To co-IP ykt6 SNARE assemblies, approximately 106-107 cells expressing GFP-tagged YKT6, were harvested in 1 ml of PBS, scraped off the plate and transferred to centrifuge tubes. The cells were subjected to centrifugation 200×g for 5 m at 4° C. […] Eluates were analyzed by western blot as described below. The samples were not analyzed in a blinded manner.

a-syn = experiment: FTI treatment of wild-type mice: a-syn levels in cortex; format: in vivo; settings: daily i.p. 0.9 mg/kg, 14 days
Procedure: FIGS. 15A, 15B, 15C, 15D, 15E, and 15F. FTI treatment of wild-type mice enhances ykt6 SNARE complexes, lysosomal activity, and reduces a-syn. 15A) Wild-type mice (C57Bl/6) were i.p. injected daily with FTI for 14 days at 0.9 mg/kg and compared to vehicle injected mice. Extracts from the cortex were analyzed for cytosolic (cyt) and membrane (mem) distribution of ykt6 (veh, n=5; FTI, n=6). 15B) Representative gel filtration/western blot analysis of cortical extracts of veh or FTI injected wild-type mice. Inputs are shown on the left. NSE indicates equal column loading. 15C) Quantification of ykt6 and STX5 complexes (ca. 120A) from gel filtration analysis in C (n=4 mice). Fraction 1 corresponds to complexes at 120A, while fractions 7-9 correspond to ykt6 monomers at 22-14 A. 15D) The levels of post ER (endo H resistant) GCase were analyzed by western blot and post ER/ER ratios were quantified from the cortex of FTI treated mice (veh, n=5; FTI, n=6). 15E) GCase activity was assessed in cortical lysates and normalized to total protein (veh, n=4; FTI, n=6). 15F) a-Syn levels were quantified from cytosolic or membrane isolated fractions from the cortex of wild-type FTI treated mice (veh, n=4; FTI, n=6). For all quantifications, values are the mean+/−SEM, *p<0.05.
Treatment of C57Bl/6 and DASYN53 mice with farnesyltransferase inhibitors. […]

TH protein = experiment: FTI treatment of DASYN53 mice: midbrain TH levels; format: in vivo; settings: i.p. 0.9 mg/kg, 26d
Excerpt: FIGS. 8A, 8B, 8C, 8D, 8E, and 8F. FTI treatment enhances GCase activity and reduces pathological a-syn in transgenic mice. 8A) GCase activity in the midbrain of FTI (LNK-754)-treated DASYN53 mice (treated as in FIG. 7) (n=4, veh; n=5, FTI). 8B & 8C) Quantification of soluble and insoluble a-syn from midbrains of FTI-treated DASYN53 mice normalized to total protein (CBB). Syn211 is selective for human (hu) a-syn; C20 and syn303 detect mouse (ms) and hu a-syn, (n=3, nTg+Veh; n=4, DASYN53+veh; n=5 DASYN53+FTI). 8D) Midbrain TH levels were quantified by western blot of FTI-treated DASYN53 mice (n=3). 8E) Body weight of FTI-treated DASYN53 mice (n=9, nTg+Veh; n=7, DASYN53+veh; n=7 DASYN53+FTI). 8F) Rotarod test of FTI-treated DASYN53 mice (n=12, nTg+Veh; n=7, DASYN53+veh; n=7 DASYN53+FTI). Values are the mean+/−SEM. *p<0.05, **p<0.01, and *** p<0.001. Student's t-test, panel A; ANOVA with Tukey's posthoc test, panels B-F.
Treatment of C57Bl/6 and DASYN53 mice with farnesyltransferase inhibitors. 3 mo old C57BL6 mice were i.p. injected daily with 0.9 mg/kg LNK-754 that was formulated in a vehicle of 0.5% sodium carboxymethylcellulose and filtered before use for 14 days. DASYN53 mice were i.p. injected daily with 0.9 mg/kg LNK-754 as above. Mice were perfused with PBS and the brains (cortex) were rapidly dissected and frozen until analysis. […]

In the case of `C#Cc1cccc(-c2cc(=O)n(C)c3ccc([C@](O)(c4ccc(Cl)cc4)c4cncn4C)cc23)c1` [LNK-754], the “ykt6 SNARE complexes by co-IP” value (ykt6 SNARE complexes) is reported as “increased ykt6 SNARE complexes”, the a-syn levels (a-syn) is reported as “reduced a-syn levels” and the “TH levels in midbrain” value (TH protein) is reported as “partially restore TH levels”.
